From patent US20070155764A1, “NOVEL SUBSTITUTED PYRIMIDINYLOXY UREAS USEFUL AS INHIBITORS OF PROTEIN KINASES” (KALYPSYS, INC., priority 2005, published 2007)

Key:
Assay type in all cases: biochemical
[1] = target: T1, human B-Raf protein kinase (Homo sapiens, UniProt P15056); experiment: In vitro B-Raf/Mek1 composite kinase assay; settings: recombinant GST-tagged human B-Raf (Δ1-415) with inactive Mek1, 2 μM ATP
T1 construct: GST (N); purchased Upstate Inc. 14-530 (B-Raf); 14-420 (Mek1)
Protocol: In Vitro B-Raf/Mek1 Composite Kinase Assay
2.5 μl of B-Raf kinase buffer (20 mM MOPS [pH 7.2], 25 mM sodium glycerophosphate, 2 mM EGTA [pH 8.0], 1 mM sodium orthovanadate, 1 mM dithiothreitol, 10 mM MgCl2, 0.03% Brij-35, 0.3 mg/ml bovine serum albumin) containing 1 ng of recombinant, N-terminal GST-tagged human B-Raf protein kinase (Δ1-415, Upstate Inc., cat. #14-530) is dispensed to wells of a 1536 multi-well white solid plate. 60 nl of 100× concentration of test compound in DMSO is dispensed to the well by passive pin transfer and incubated for 15 minutes at room temperature (approx. 22° C.). […] The assay plates are sealed and maintained in a humidified environment. After 2 hours, 2.5 μl of PKLight protein kinase assay reagent (Cambrex, cat. #LT07-501) is dispensed. After an additional 5 minute incubation at room temperature, luminescence activity is measured on a Molecular Devices Analyst multi-mode plate reader or other suitable plate reader. Kinase inhibition results in less ATP depletion, and therefore increased luminescence signal. Negative control activity is measured with DMSO lacking any test compound. The positive control is [N-(3-trifluoromethyl-4-chlorophenyl)-N′-(4-(2-methylcarbamoyl-pyridin-4-yl)oxyphenyl)urea], aka Bay 43-9006. Efficacy is measured as a percentage of positive control activity.

[2] = target: T2, VEGFR2 kinase (Homo sapiens, UniProt P35968); experiment: In vitro VEGFR2 kinase assay; settings: ADP Quest assay, poly Glu:Tyr substrate, 60 μM ATP
T2 construct: purchased Invitrogen Inc PV3660
T2 sequence (P35968 20-1356): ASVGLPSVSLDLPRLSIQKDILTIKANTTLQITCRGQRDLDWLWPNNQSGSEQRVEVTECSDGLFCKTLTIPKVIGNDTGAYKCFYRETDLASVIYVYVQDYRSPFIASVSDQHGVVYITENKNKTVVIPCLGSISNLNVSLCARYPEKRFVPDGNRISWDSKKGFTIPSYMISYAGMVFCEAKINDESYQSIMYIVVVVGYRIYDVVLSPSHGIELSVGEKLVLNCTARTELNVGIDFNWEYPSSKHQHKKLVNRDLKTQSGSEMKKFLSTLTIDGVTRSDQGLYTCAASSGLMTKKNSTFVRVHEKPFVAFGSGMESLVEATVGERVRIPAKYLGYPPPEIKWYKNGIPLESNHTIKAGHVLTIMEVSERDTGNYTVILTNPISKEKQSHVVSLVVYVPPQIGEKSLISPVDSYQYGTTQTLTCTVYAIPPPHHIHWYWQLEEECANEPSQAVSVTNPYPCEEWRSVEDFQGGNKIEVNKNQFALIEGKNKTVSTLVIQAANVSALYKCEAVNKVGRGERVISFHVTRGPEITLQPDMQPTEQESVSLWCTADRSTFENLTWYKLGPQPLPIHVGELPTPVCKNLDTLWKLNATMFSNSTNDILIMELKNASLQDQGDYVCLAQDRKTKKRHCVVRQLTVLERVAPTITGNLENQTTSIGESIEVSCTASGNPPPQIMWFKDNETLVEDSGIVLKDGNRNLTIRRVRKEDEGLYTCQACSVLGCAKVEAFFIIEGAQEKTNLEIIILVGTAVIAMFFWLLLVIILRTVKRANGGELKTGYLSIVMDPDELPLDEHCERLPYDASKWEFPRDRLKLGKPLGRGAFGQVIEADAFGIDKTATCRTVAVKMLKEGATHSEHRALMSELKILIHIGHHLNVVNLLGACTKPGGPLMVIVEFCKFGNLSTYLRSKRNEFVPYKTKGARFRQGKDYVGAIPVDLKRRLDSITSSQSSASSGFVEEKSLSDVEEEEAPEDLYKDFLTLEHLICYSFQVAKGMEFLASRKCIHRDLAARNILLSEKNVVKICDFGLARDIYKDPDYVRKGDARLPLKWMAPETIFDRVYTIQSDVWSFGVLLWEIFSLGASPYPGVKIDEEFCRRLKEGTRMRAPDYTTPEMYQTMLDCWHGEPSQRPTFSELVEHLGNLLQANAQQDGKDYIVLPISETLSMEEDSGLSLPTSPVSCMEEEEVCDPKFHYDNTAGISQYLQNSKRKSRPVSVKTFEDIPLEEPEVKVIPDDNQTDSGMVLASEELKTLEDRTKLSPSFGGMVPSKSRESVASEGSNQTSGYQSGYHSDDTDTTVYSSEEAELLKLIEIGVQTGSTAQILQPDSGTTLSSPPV
Protocol: (§1) In vitro vegfr2 and PDGFRβ Kinase Assays
(§2) 2.5 μl of ADP Quest assay buffer (DiscoverX Inc., cat. #90-0071) containing 20 ng VEGFR2 kinase (Invitrogen Inc, cat. #PV3660) or 25 ng PDGFRβ kinase (Invitrogen Inc., cat. #P3082) is dispensed to wells of a 1536 multi-well, black solid plate. 60 nl of 100× concentration of test compound in DMSO is dispensed to the well by passive pin transfer and incubated for 10 minutes at room temperature (approx. 22° C.). 2.5 μl of ADP Quest assay buffer containing 0.25 μg of poly Glu:Tyr (4:1) substrate peptide (Upstate Inc., cat. #12-440) and 60 μM ATP is then dispensed and the kinase reaction allowed to incubate at 30° C. for 2 hours. The assay plates are sealed and maintained in a humidified environment. After the 2 hour incubation, 2 μl of ADP Quest assay reagent A, followed by 2 μl of assay reagent B, is added. After an additional 30 minute incubation at room temperature, fluorescence intensity is measured on a Molecular Devices Aquest multi-mode plate reader or other suitable plate reader (fluorescence excitation filter: 530/25 [Peak (nm)/FWHM passband (nm)]; dichroic beamsplitter: 561 nm longpass; fluorescence emission filter: 580/10 [Peak (nm)/FWHM passband (nm)]. The assay measures the conversion of a non-fluoresecent molecule to fluorescent resorutin, which correlates with kinase activity. Negative control activity is measured with DMSO lacking any test compound. The positive control is [N-(3-trifluoromethyl-4-chlorophenyl)-N′-(4-(2-methylcarbamoyl-pyridin-4-yl)oxyphenyl)urea], aka Bay 43-9006. Efficacy is measured as a percentage of positive control activity.

[3] = target: T3, PDGFRβ kinase (Homo sapiens, UniProt P09619); experiment: In vitro PDGFRβ kinase assay; settings: ADP Quest assay, poly Glu:Tyr substrate, 60 μM ATP
T3 construct: purchased Invitrogen Inc. P3082
T3 sequence (P09619 33-1106): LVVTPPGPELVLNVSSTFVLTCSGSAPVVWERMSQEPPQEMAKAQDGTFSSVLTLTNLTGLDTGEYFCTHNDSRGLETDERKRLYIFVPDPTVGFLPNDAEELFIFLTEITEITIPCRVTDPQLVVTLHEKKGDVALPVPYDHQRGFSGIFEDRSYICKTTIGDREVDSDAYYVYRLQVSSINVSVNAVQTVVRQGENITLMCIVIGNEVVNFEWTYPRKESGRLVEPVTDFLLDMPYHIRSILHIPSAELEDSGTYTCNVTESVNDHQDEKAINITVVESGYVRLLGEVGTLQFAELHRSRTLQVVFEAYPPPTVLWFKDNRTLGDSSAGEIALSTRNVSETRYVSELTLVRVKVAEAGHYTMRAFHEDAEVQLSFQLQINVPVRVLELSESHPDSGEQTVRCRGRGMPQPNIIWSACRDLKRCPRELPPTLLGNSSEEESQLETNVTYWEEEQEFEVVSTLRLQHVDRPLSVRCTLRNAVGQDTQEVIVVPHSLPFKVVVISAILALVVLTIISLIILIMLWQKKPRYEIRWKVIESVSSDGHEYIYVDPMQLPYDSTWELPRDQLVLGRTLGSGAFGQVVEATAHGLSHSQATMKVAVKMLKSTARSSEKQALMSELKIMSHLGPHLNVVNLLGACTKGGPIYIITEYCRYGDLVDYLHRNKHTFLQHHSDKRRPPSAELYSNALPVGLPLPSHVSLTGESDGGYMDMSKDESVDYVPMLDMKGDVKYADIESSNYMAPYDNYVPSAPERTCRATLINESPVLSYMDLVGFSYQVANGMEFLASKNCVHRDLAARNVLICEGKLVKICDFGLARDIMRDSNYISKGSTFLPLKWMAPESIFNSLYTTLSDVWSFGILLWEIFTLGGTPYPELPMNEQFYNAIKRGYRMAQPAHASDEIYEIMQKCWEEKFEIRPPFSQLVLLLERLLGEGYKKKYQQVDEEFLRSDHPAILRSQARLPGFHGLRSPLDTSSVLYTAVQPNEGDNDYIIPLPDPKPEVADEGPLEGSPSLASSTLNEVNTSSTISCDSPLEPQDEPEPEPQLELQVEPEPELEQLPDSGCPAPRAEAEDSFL
Protocol: as §1, §2

T1 sequence (P15056 416-766): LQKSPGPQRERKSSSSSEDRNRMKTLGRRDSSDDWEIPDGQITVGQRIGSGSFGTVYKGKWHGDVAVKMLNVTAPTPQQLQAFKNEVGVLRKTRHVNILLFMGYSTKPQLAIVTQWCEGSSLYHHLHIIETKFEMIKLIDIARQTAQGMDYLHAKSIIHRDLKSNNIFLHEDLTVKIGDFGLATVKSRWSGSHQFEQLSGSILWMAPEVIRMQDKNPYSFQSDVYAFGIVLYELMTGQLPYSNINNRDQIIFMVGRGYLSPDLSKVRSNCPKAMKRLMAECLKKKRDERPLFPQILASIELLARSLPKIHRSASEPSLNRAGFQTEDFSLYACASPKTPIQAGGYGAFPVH

| Compound | IC50 [1] | IC50 [2] | IC50 [3] |
| --- | --- | --- | --- |
| Cn1ncnc1-c1cc(Oc2ccc(NC(=O)Nc3ccc(Cl)c(C(F)(F)F)c3)cc2)ncn1 [Example 23, 1-(4-Chloro-3-(trifluoromethyl)phenyl)-3-(4-(6-(1-methyl-1H-1,2,4-triazol-5-yl)pyrimidin-4-yloxy)phenyl)urea] | ≤ 10 µM | ≤ 10 µM | ≤ 10 µM |
| CN1CCN(Cc2cc(NC(=O)Nc3cccc(Oc4cc(-c5nnco5)ncn4)c3)cc(C(F)(F)F)c2)CC1 [Example 24, 1-(3-(6-(1,3,4-Oxadiazol-2-yl)pyrimidin-4-yloxy)phenyl)-3-(3-((4-methylpiperazin-1-yl)methyl)-5-(trifluoromethyl)phenyl)urea] | ≤ 10 µM | ≤ 10 µM | ≤ 10 µM |
| CCN(CC)Cc1cc(NC(=O)Nc2cccc(Oc3cc(-c4nnco4)ncn3)c2)cc(C(F)(F)F)c1 [Example 25, 1-(3-(6-(1,3,4-Oxadiazol-2-yl)pyrimidin-4-yloxy)phenyl)-3-(3-((diethylamino)methyl)-5-(trifluoromethyl)phenyl)urea] | ≤ 10 µM | ≤ 10 µM | ≤ 10 µM |
| O=C(Nc1cccc(Oc2cc(-c3nnco3)ncn2)c1)Nc1cc(C(F)(F)F)c(Cl)cc1OCCN1CCCC1 [Example 26, 1-(3-(6-(1,3,4-Oxadiazol-2-yl)pyrimidin-4-yloxy)phenyl)-3-(4-chloro-2-(2-(pyrrolidin-1-yl)ethoxy)-5-(trifluoromethyl)phenyl)urea] | ≤ 10 µM | ≤ 10 µM | ≤ 10 µM |
| O=C(Nc1cccc(Oc2cc(-c3ccc[nH]3)ncn2)c1)Nc1ccc(Cl)c(C(F)(F)F)c1 [Example 27, 1-(3-(6-(1H-Pyrrol-2-yl)pyrimidin-4-yloxy)phenyl)-3-(4-chloro-3-(trifluoromethyl)phenyl)urea] | ≤ 10 µM | ≤ 10 µM | ≤ 10 µM |
| O=C(Nc1ccc(Oc2cc(-c3ccc[nH]3)ncn2)cc1)Nc1ccc(Cl)c(C(F)(F)F)c1 [Example 28, 1-(4-(6-(1H-Pyrrol-2-yl)pyrimidin-4-yloxy)phenyl)-3-(4-chloro-3-(trifluoromethyl)phenyl)urea] | ≤ 10 µM | ≤ 10 µM | ≤ 10 µM |
| Cc1nc(C)c(-c2cc(Oc3cccc(NC(=O)Nc4ccc(Cl)c(C(F)(F)F)c4)c3)ncn2)s1 [Example 29, 1-(4-Chloro-3-(trifluoromethyl)phenyl)-3-(3-(6-(2,4-dimethylthiazol-5-yl)pyrimidin-4-yloxy)phenyl)urea] | ≤ 10 µM | ≤ 10 µM | ≤ 10 µM |
| Cc1nc(C)c(-c2cc(Oc3ccc(NC(=O)Nc4ccc(Cl)c(C(F)(F)F)c4)cc3)ncn2)s1 [Example 30, 1-(4-Chloro-3-(trifluoromethyl)phenyl)-3-(4-(6-(2,4-dimethylthiazol-5-yl)pyrimidin-4-yloxy)phenyl)urea] | > 10 µM | ≤ 10 µM | ≤ 10 µM |
| O=C(Nc1ccc(Oc2cc(-c3nnco3)ncn2)cc1)Nc1cc(C(F)(F)F)c(Cl)cc1OCCN1CCCC1 [Example 31, 1-(4-(6-(1,3,4-Oxadiazol-2-yl)pyrimidin-4-yloxy)phenyl)-3-(4-chloro-2-(2-(pyrrolidin-1-yl)ethoxy)-5-(trifluoromethyl)phenyl)urea] | ≤ 10 µM | ≤ 10 µM | ≤ 10 µM |
| CCN(CC)CCNC(=O)c1cc(NC(=O)Nc2cccc(Oc3cc(-c4nnco4)ncn3)c2)cc(C(F)(F)F)c1 [Example 32, 3-(3-(3-(6-(1,3,4-Oxadiazol-2-yl)pyrimidin-4-yloxy)phenyl)ureido)-N-(2-(diethylamino)ethyl)-5-(trifluoromethyl)benzamide] | ≤ 10 µM | ≤ 10 µM | ≤ 10 µM |
| O=C(Nc1cccc(Oc2cc(-c3nnco3)ncn2)c1)Nc1cc(CN2CCOCC2)cc(C(F)(F)F)c1 [Example 33, 1-(3-(6-(1,3,4-Oxadiazol-2-yl)pyrimidin-4-yloxy)phenyl)-3-(3-(morpholinomethyl)-5-(trifluoromethyl)phenyl)urea] | ≤ 10 µM | ≤ 10 µM | ≤ 10 µM |
| Cn1cc(-c2cc(Oc3ccc(NC(=O)Nc4ccc(Cl)c(C(F)(F)F)c4)cc3)ncn2)cn1 [Example 35, 1-(4-Chloro-3-(trifluoromethyl)phenyl)-3-(4-(6-(1-methyl-1H-pyrazol-4-yl)pyrimidin-4-yloxy)phenyl)urea] | ≤ 10 µM | ≤ 10 µM | ≤ 10 µM |
| CN1CCN(Cc2cc(NC(=O)Nc3cccc(Oc4cc(-c5ncco5)ncn4)c3)cc(C(F)(F)F)c2)CC1 [Example 36, 1-(3-((4-Methylpiperazin-1-yl)methyl)-5-(trifluoromethyl)phenyl)-3-(3-(6-(oxazol-2-yl)pyrimidin-4-yloxy)phenyl)urea] | ≤ 10 µM | > 10 µM | ≤ 10 µM |
| O=C(Nc1cccc(Oc2ccnc(-c3nnco3)c2)c1)Nc1cc(C(F)(F)F)c(Cl)cc1OCCN1CCCC1 [Example 37, 1-(3-(2-(1,3,4-Oxadiazol-2-yl)pyridin-4-yloxy)phenyl)-3-(4-chloro-2-(2-(pyrrolidin-1-yl)ethoxy)-5-(trifluoromethyl)phenyl)urea] | ≤ 10 µM | ≤ 10 µM | ≤ 10 µM |
| CN1CCN(Cc2cc(NC(=O)Nc3cccc(Oc4ccnc(-c5nnco5)c4)c3)cc(C(F)(F)F)c2)CC1 [Example 38, 1-(3-(2-(1,3,4-Oxadiazol-2-yl)pyridin-4-yloxy)phenyl)-3-(3-((4-methylpiperazin-1-yl)methyl)-5-(trifluoromethyl)phenyl)urea] | ≤ 10 µM | ≤ 10 µM | ≤ 10 µM |
| CN1CCN(Cc2cc(NC(=O)Nc3ccc(Oc4ccnc(-c5nnco5)c4)cc3)cc(C(F)(F)F)c2)CC1 [Example 39, 1-(4-(2-(1,3,4-Oxadiazol-2-yl)pyridin-4-yloxy)phenyl)-3-(3-((4-methylpiperazin-1-yl)methyl)-5-(trifluoromethyl)phenyl)urea] | ≤ 10 µM | ≤ 10 µM | ≤ 10 µM |
| O=C(Nc1cccc(Oc2cc(-c3ccn[nH]3)ncn2)c1)Nc1ccc(Cl)c(C(F)(F)F)c1 [Example 40, 1-(3-(6-(1H-Pyrazol-5-yl)pyrimidin-4-yloxy)phenyl)-3-(4-chloro-3-(trifluoromethyl)phenyl)urea] | ≤ 10 µM | ≤ 10 µM | ≤ 10 µM |
| O=C(Nc1ccc(Oc2ccnc(-c3nnco3)c2)cc1)Nc1cc(C(F)(F)F)c(Cl)cc1OCCN1CCCC1 [Example 41, 1-(4-(2-(1,3,4-Oxadiazol-2-yl)pyridin-4-yloxy)phenyl)-3-(4-chloro-2-(2-(pyrrolidin-1-yl)ethoxy)-5-(trifluoromethyl)phenyl)urea] | ≤ 10 µM | ≤ 10 µM | ≤ 10 µM |
| O=C(Nc1cccc(Oc2cc(-c3ccno3)ncn2)c1)Nc1ccc(Cl)c(C(F)(F)F)c1 [Example 42, 1-(4-chloro-3-(trifluoromethyl)phenyl)-3-(3-(6-(isoxazol-5-yl)pyrimidin-4-yloxy)phenyl)urea] | ≤ 10 µM | ≤ 10 µM | ≤ 10 µM |
| O=C(Nc1ccc(Oc2ccnc(-c3nnco3)c2)cc1)Nc1cc(CN2CCOCC2)cc(C(F)(F)F)c1 [Example 43, 1-(4-(2-(1,3,4-Oxadiazol-2-yl)pyridin-4-yloxy)phenyl)-3-(3-(morpholinomethyl)-5-(trifluoromethyl)phenyl)urea] | ≤ 10 µM | ≤ 10 µM | ≤ 10 µM |
| CN1CCC(Oc2cc(Cl)c(C(F)(F)F)cc2NC(=O)Nc2ccc(Oc3ccnc(-c4nnco4)c3)cc2)CC1 [Example 44] | ≤ 10 µM | ≤ 10 µM | ≤ 10 µM |
